From US8101594B2, “Method for improving pancreatic functions” (Morinaga Milk Industry Co., Ltd., priority 2005, dated 2012) come the findings set out here.

Experiment [1] relates to db/db mice. The experiment in a line: Pancreatic tissue protecting action: number and maximum area of Langerhans islets in pancreatic sections of db/db mice. The settings on record: for Maximum area of Langerhans islets on administration × 10^3 / The numbers of Langerhans islets in sections on 43rd day of administration: 1 μg/animal orally once a day for 42 days; for Maximum area of Langerhans islets on administration × 10^3: negative sample 44.5 ± 17.7; for The numbers of Langerhans islets in sections on 43rd day of administration: pancreatic sections of 3 positions, HE staining, negative sample 40.3 ± 9.7; for Action of protecting pancreatic tissues, especially endocrine cells: 42 days oral. The experiment is classed as in vivo. The source says:
In this test, the pancreatic tissue protecting action of compounds having a lophenol skeleton was examined by using db/db mice known as a model animal of pancreatic hypofunction or pancreatic tissue dysfunction.
4-methyl-cholest-7-en-3-ol produced in Preparation Example mentioned above was used as test sample 1, 4-methyl-ergost-7-en-3-ol was used as test sample 2, 4-methyl-stigmast-7-en-3-ol was used as test samples 3. Further, β-sitosterol (Tama Biochemical Co., Ltd.) was used as a control sample.
In this test, 6-week old male db/db mice (purchased from Clea Japan, Inc.) were used. These mice were divided into groups, each consisting of 7 animals. Each test sample was dissolved in DMSO, and the concentration was adjusted to 1 μg/mL with physiological saline. The final DMSO concentration was adjusted to 0.2%. The model mice were orally administered with 1 mL of the test sample once a day everyday for 42 days with a sonde. On the 43rd day of the continuous administration, the pancreas was extracted, divided into three portions of upstream, midstream and downstream from the duodenum side, and fixed with a formalin solution, and then paraffin blocks were prepared in a conventional manner. Section slides were prepared from the paraffin blocks, and subjected to hematoxylin-eosin staining. The numbers of Langerhans islets existing on the sections of the 3 position of the pancreas, and area of Langerhans islet having the maximum area on each section were measured by using an ocular micrometer on a microscope (“ECLIPSE E600”, NIKON CORP.).

The subject of experiment [2] is db/db mice. The experiment in a line: Serum insulin level (insulin production ability protecting action) in db/db mice after 42 days of oral administration. The experiment is classed as in vivo. To be noted: for Serum insulin levels on 43rd day of administration: male db/db mice, ELISA, negative sample 1.99 ± 0.66; for Pancreatic function (insulin production ability) protecting effect: 0.1 μg/animal; for Pancreatic function (insulin production ability) protecting effect / Serum insulin level as % of that observed in the negative test: 43rd day of continuous administration, db/db mice; for Serum insulin level as % of that observed in the negative test: 1 μg/animal. The method, then: In this test, the endocrine gland cell functions (insulin production ability) protecting action of compounds having a lophenol skeleton was evaluated by using db/db mice known as a model animal of pancreatic hypofunction or pancreatic tissue dysfunction.
4-methyl-cholest-7-en-3-ol produced in Preparation Example mentioned above was used as test sample 1, 4-methyl-ergost-7-en-3-ol was used as test sample 2, and 4-methyl-stigmast-7-en-3-ol was used as test samples 3.
In this test, 6-week old male db/db mice (purchased from Clea Japan, Inc.) were used. These mice were divided into groups, each consisting of 7 animals. Each test sample was dissolved in DMSO, and the concentration was adjusted to 0.1 or 1 μg/mL with physiological saline. The final DMSO concentration was adjusted to 0.2%. The pancreas dysfunction model mice were orally administered with 1 mL of the test sample once a day everyday for 42 days with a sonde. The serum insulin level was measured on the 43rd day of the continuous administration by using Lbis insulin mouse ELISA kit (Shibayagi Co., Ltd).
In general terms: An ELISA detects its analyte on a solid surface through an enzyme-linked reagent.

[3] abbreviates: 0.1 μg/animal orally once a day for 42 days.
Setting [4] is: 1 μg/animal orally once a day for 42 days.

As to `CCC(CCC(C)C1CCC2C3=CCC4C(C)C(O)CCC4(C)C3CCC21C)C(C)C` (stereo not shown) [Test sample 3, 4-methyl-stigmast-7-en-3-ol], the “Maximum area of Langerhans islets on administration × 10^3” value (“Maximum area … on administration × 10^3” for short) with db/db mice [1] (43rd day) is given as 122.6 ± 51.4 × 10^3 μm^2. Moreover, the “The numbers of Langerhans islets in sections on 43rd day of administration” value (from here on “The numbers of Langerhans islets”) in the experiment with db/db mice [1] was determined as 60.4 ± 11.6 piece. Further, in the experiment with db/db mice [1] (1 μg/animal, 43rd day), the “Maximum area of Langerhans islets, times as large as that observed in the negative test” value (from here on “Maximum area of Langerhans islets, times”) was 2.8 times and the “Number of Langerhans islets as % of the number in the negative sample-administered mice” value was 150%. In addition, the “Action of protecting pancreatic tissues, especially endocrine cells” value (shortened to “Action of protecting pancreatic tissues”) in the experiment on db/db mice [1] (1 μg/animal) is “had an action of protecting pancreatic tissues”. For the same molecule, the “Serum insulin levels on 43rd day of administration” value (“Serum insulin levels on 43rd day” for short) in the experiment on db/db mice [2] (setting [3]) came to 2.23 ± 0.68 ng/mL. In the experiment on db/db mice [2], the “Pancreatic function (insulin production ability) protecting effect” value was “any significant pancreatic function protecting effect was not observed” and the “Serum insulin level as % of that observed in the negative test” value (“Serum insulin level as %” below) turned out to be 211%. The “Serum insulin levels on 43rd day” value with db/db mice [2] (setting [4]) is on record as 4.20 ± 1.86 ng/mL.
For `CC[C@H](CC[C@@H](C)[C@H]1CC[C@H]2[C@@H]3CC=C4C[C@@H](O)CC[C@]4(C)[C@H]3CC[C@]12C)C(C)C` [Control sample, β-sitosterol, reference compound], the “Maximum area … on administration × 10^3” value in the experiment with db/db mice [1] (43rd day) is recorded as 69.1 ± 40.6 × 10^3 μm^2. Further, in the experiment on db/db mice [1], the “The numbers of Langerhans islets” value is on record as 42.3 ± 20.1 piece. Further, in the experiment with db/db mice [1] (1 μg/animal, 43rd day), the “Pancreatic function protecting effect” value is recorded as “any pancreatic function protecting effect was not observed”. Also, in the experiment with db/db mice [1] (1 μg/animal, 43rd day, versus negative sample), the “Change of numbers and maximum areas of Langerhans islets” value is “don't show any significant change”.
In the case of `CC(C)C(C)CCC(C)C1CCC2C3=CCC4C(C)C(O)CCC4(C)C3CCC21C` (stereo not shown) [Test sample 2, 4-methyl-ergost-7-en-3-ol], in the experiment with db/db mice [1] (43rd day), the “Maximum area … on administration × 10^3” value is recorded as 178.7 ± 143.4 × 10^3 μm^2. Also, the “The numbers of Langerhans islets” value with db/db mice [1] was 64.1 ± 9.1 piece. Besides, in the experiment on db/db mice [1] (1 μg/animal, 43rd day), the “Maximum area of Langerhans islets, times” value is recorded as 4 times and the “Number of Langerhans islets as % of the number in the negative sample-administered mice” value came to 159%. The “Action of protecting pancreatic tissues” value in the experiment with db/db mice [1] (1 μg/animal) is “had an action of protecting pancreatic tissues”. Besides, the “Serum insulin levels on 43rd day” value in the experiment with db/db mice [2] (setting [3]) was determined as 2.32 ± 1.52 ng/mL. In the experiment on db/db mice [2], the “Pancreatic function (insulin production ability) protecting effect” value is reported as “any significant pancreatic function protecting effect was not observed” and the “Serum insulin level as %” value came to 210%. Besides, the “Serum insulin levels on 43rd day” value in the experiment on db/db mice [2] (setting [4]) stood at 4.17 ± 2.23 ng/mL.
For `CC(C)CCCC(C)C1CCC2C3=CCC4C(C)C(O)CCC4(C)C3CCC21C` (stereo not shown) [Test sample 1, 4-methyl-cholest-7-en-3-ol], the “Maximum area … on administration × 10^3” value in the experiment with db/db mice [1] (43rd day) is 160.0 ± 116.0 × 10^3 μm^2. Besides, the “The numbers of Langerhans islets” value in the experiment with db/db mice [1] is given as 75.7 ± 24.7 piece. Further, in the experiment with db/db mice [1] (1 μg/animal, 43rd day), the “Maximum area of Langerhans islets, times” value is recorded as 3.6 times and the “Number of Langerhans islets as % of the number in the negative sample-administered mice” value was determined as 188%. The “Action of protecting pancreatic tissues” value in the experiment with db/db mice [1] (1 μg/animal) is “had an action of protecting pancreatic tissues”. The “Serum insulin levels on 43rd day” value with db/db mice [2] (setting [3]) is given as 2.33 ± 1.23 ng/mL. Also, in the experiment on db/db mice [2], the “Pancreatic function (insulin production ability) protecting effect” value was “any significant pancreatic function protecting effect was not observed” and the “Serum insulin level as %” value was 184%. The “Serum insulin levels on 43rd day” value in the experiment on db/db mice [2] (setting [4]) is given as 3.67 ± 0.80 ng/mL.
